Data: patent publication US20250051356A1, “RIFABUTIN ANALOGS FOR THE TREATMENT OF DISEASE” (priority 2021, published 2025)
In brackets after ≈: the same amount, converted by molar mass. Like-named read-outs stand apart in the source and are kept apart here.

Assays:
Type in all cases: cell-based
[1] = test system: A. baumannii (HUMC1 strain); test: MIC by broth microdilution against A. baumannii in RPMI + 10% FCS; conditions: Acinetobacter baumannii; HUMC1 strain; RPMI + 10% FCS; read-out: MIC A. baumannii
M. xenopi (ATCC 19250) = test: MIC against M. xenopi in CAMHB + ADC; conditions: Mycobacterium xenopi
M. kansasii (ATCC 12478) = test: MIC against M. kansasii in CAMHB + ADC; conditions: Mycobacterium kansasii, ATCC12478; ATCC 12478; CAMHB + ADC (5%); read-out: MIC M. kansasii
[2] = test system: S. aureus (UAMS-1625 strain); test: MIC by broth microdilution against S. aureus; conditions: Staphylococcus aureus, read-out: MIC S. aureus
M. avium (ATCC 25291) = test: MIC against M. avium in CAMHB + ADC; conditions: Mycobacterium avium, ATCC25291; ATCC 25291; CAMHB + ADC (5%); read-out: MIC M. avium
[3] = test system: M. abscessus subsp. abscessus ATCC 19977; test: MIC against M. abscessus in Middlebrook 7H9 + ADC; conditions: Mycobacteroides abscessus, ATCC19977; ATCC 19977; 7H9 + ADC; read-out: MIC M. abscessus
[4] = ATCC19250, ATCC 19250, CAMHB + ADC (5%), read-out: MIC M. xenopi

SMILES	MIC [1] [µg/mL]	MIC (M. xenopi (ATCC 19250); [4]) [µg/mL]	MIC (M. kansasii (ATCC 12478)) [µg/mL]	MIC [2] [µg/mL]	MIC (M. avium (ATCC 25291)) [µg/mL]	MIC [3] [µg/mL]	MIC (M. xenopi (ATCC 19250); ATCC19250, read-out: MIC M. xenopi) [µg/mL]
CO[C@H]1/C=C/O[C@@]2(C)Oc3c(C)c(O)c4c(c3C2=O)C2=NC3(CCN(CC(C)C)CC3)NC2=C(NC(=O)/C(C)=C\C=C\[C@H](C)[C@H](O)[C@@H](C)[C@@H](O)[C@@H](C)[C@H](OC(=O)CC(=O)N2CCC3C(CCCN3Cc3ccccc3)C2)[C@@H]1C)C4=O (stereo partly drawn) [Compound 68]	0.03	0.125	0.001	0.5 (≈ 0.453 µM)	0.03	0.25	
CCC(C(=O)O[C@H]1[C@H](C)[C@H](O)[C@H](C)[C@@H](O)[C@@H](C)/C=C/C=C(/C)C(=O)NC2=C3NC4(CCN(CC(C)C)CC4)N=C3c3c(c(O)c(C)c4c3C(=O)[C@@](C)(O/C=C/[C@H](OC)[C@H]1C)O4)C2=O)C(=O)N1CCCN(c2ccc(F)cc2)CC1 (stereo partly drawn) [Compound 79]	0.03	0.03	0.004	0.5 (≈ 0.456 µM)	0.125	0.125	
CO[C@H]1/C=C/OC2(C)Oc3c(C)c(O)c4c(c3C2=O)C2=NC3(CCN(CC(C)C)CC3)NC2=C(NC(=O)/C(C)=C\C=C\[C@H](C)[C@H](O)[C@@H](C)[C@@H](O)[C@@H](C)[C@H](OC(=O)CCC(=O)N2CCC(N(C)c3ccccc3)CC2)[C@@H]1C)C4=O (stereo partly drawn) [Compound 82]	0.016	0.03	0.016	0.5 (≈ 0.464 µM)	0.25	0.25	
CO[C@H]1/C=C/OC2(C)Oc3c(C)c(O)c4c(c3C2=O)C2=NC3(CCN(CC(C)C)CC3)NC2=C(NC(=O)/C(C)=C\C=C\[C@H](C)[C@H](O)[C@@H](C)[C@@H](O)[C@@H](C)[C@H](OC(=O)CCC(=O)N2CCCN(c3ccc(F)cc3)CC2)[C@@H]1C)C4=O (stereo partly drawn) [Compound 83]	0.016	0.03	0.008	0.5 (≈ 0.462 µM)	0.25	0.25	
CO[C@H]1/C=C/OC2(C)Oc3c(C)c(O)c4c(c3C2=O)C2=NC3(CCN(CC(C)C)CC3)NC2=C(NC(=O)/C(C)=C\C=C\[C@H](C)[C@H](O)[C@@H](C)[C@@H](O)[C@@H](C)[C@H](OC(=O)CCCC(=O)N2CCCN(c3ccc(F)cc3)CC2)[C@@H]1C)C4=O (stereo partly drawn) [Compound 86]	0.008	0.03	0.008	0.5 (≈ 0.456 µM)	0.125	0.125	
CO[C@H]1/C=C/O[C@@]2(C)Oc3c(C)c(O)c4c(c3C2=O)C2=NC3(CCN(CC(C)C)CC3)NC2=C(NC(=O)/C(C)=C\C=C\[C@H](C)[C@H](O)[C@@H](C)[C@@H](O)[C@@H](C)[C@H](OC(=O)CC(=O)N2CCN(Cc3ccccc3)CC2)[C@@H]1C)C4=O [Compound 91]	0.016	0.03	0.001	0.25 (≈ 0.238 µM)	0.125	0.125	
CO[C@H]1/C=C/OC2(C)Oc3c(C)c(O)c4c(c3C2=O)C2=NC3(CCN(CC(C)C)CC3)NC2=C(NC(=O)/C(C)=C\C=C\[C@H](C)[C@H](O)[C@@H](C)[C@@H](O)[C@@H](C)[C@H](OC(=O)CC(=O)NC2CCN(Cc3ccccc3)C2)[C@@H]1C)C4=O (stereo partly drawn) [Compound 93]	0.008	0.25	0.008	0.125 (≈ 0.119 µM)	0.5	0.25	
CO[C@H]1/C=C/O[C@@]2(C)Oc3c(C)c(O)c4c(c3C2=O)C2=NC3(CCN(CC(C)C)CC3)NC2=C(NC(=O)/C(C)=C\C=C\[C@H](C)[C@H](O)[C@@H](C)[C@@H](O)[C@@H](C)[C@H](OC(=O)CC(=O)N2CCN(C3Cc5ccccc5C3)CC2)[C@@H]1C)C4=O [Compound 95]	0.03	0.03	0.002	0.5 (≈ 0.465 µM)	0.125	0.125	
CO[C@H]1/C=C/OC2(C)Oc3c(C)c(O)c4c(c3C2=O)C2=NC3(CCN(CC(C)C)CC3)NC2=C(NC(=O)/C(C)=C\C=C\[C@H](C)[C@H](O)[C@@H](C)[C@@H](O)[C@@H](C)[C@H](OC(=O)CC(=O)N2CCN(C3CCCCC3)CC2)[C@@H]1C)C4=O (stereo partly drawn) [Compound 96]	0.008		0.008	0.125 (≈ 0.12 µM)	0.03	0.25	0.125
CO[C@H]1/C=C/OC2(C)Oc3c(C)c(O)c4c(c3C2=O)C2=NC3(CCN(CC(C)C)CC3)NC2=C(NC(=O)/C(C)=C\C=C\[C@H](C)[C@H](O)[C@@H](C)[C@@H](O)[C@@H](C)[C@H](OC(=O)CC(=O)NCCCN(C)c2ccccc2)[C@@H]1C)C4=O (stereo partly drawn) [Compound 97]	0.008	0.06	0.004	0.25 (≈ 0.241 µM)	0.125	0.25	
